From patent publication US7109193B2, “Tricyclic diazepines tocolytic oxytocin receptor antagonists” (Wyeth, priority 2001, dated 2006)
Structures can show the parent of a compound that is named as a salt.

Target: T1, human vasopressin V1a receptor subtype (Homo sapiens, UniProt P37288)
T1 construct: host or cells: CHO cells (pZeoSV vector for the Thibonnier line)
Assay: Vasopressin binding in Chinese Hamster Ovary cell membranes expressing human vasopressin V1a subtype receptors
Details: CHO cell membranes, [3H]Manning ligand; for inhibition at 0.1 µM: 100 nM, values without parentheses; for IC50: values in parentheses
How it was run: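 Displacement of [3H]Manning ligand (8 nM working solution) from human V1a receptors in CHO cell membranes, 25–50 μg protein per well. Incubation ran 60 min at room temperature in 50 mM Tris-HCl pH 7.4 with protease inhibitors, followed by filtration and scintillation counting. Results are given as IC50 or percent inhibition.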

T1 sequence (P37288 whole entry): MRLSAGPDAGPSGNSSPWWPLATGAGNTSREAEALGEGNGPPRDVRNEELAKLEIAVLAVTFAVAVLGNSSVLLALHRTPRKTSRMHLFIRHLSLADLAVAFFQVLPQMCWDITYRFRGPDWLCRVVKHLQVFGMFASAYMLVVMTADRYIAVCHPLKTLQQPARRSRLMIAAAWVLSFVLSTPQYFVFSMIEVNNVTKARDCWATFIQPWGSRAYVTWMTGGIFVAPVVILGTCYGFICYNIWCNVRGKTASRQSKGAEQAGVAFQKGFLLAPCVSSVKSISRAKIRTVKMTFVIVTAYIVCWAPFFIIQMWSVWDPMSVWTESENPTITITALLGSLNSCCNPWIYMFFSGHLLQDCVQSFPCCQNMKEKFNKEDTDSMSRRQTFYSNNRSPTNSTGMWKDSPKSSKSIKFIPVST

inhibition at 0.1 µM	IC50	Compound
44%	–	COc1ccccc1-c1ccc(C(=O)N2Cc3ccc(C(=O)N(C)CCN(C)C)n3Cc3ccccc32)cc1C [Example 88, N-[2-(Dimethylamino)ethyl]-10-[(2′-methoxy-2-methyl[1,1′-biphenyl]-4-yl)carbonyl]-N-methyl-10,11-dihydro-5H-pyrrolo[2,1-c][1,4]benzodiazepine-3-carboxamide]
–	317 nM	COc1ccccc1-c1ccc(C(=O)N2Cc3ccc(C(=O)N4CCN(CCN5CCOCC5)CC4)n3Cc3ccccc32)cc1C [Example 206, {10-[(2′-Methoxy-2-methyl[1,1′-biphenyl]-4-yl)carbonyl]-10,11-dihydro-5H-pyrrolo[2,1-c][1,4]benzodiazepin-3-yl}{4-[2-(4-morpholinyl)ethyl]-1-piperazinyl}methanone]
–	538 nM	COc1cc(-c2ccccc2C)c(Cl)cc1C(=O)N1Cc2ccc(C(=O)N3CCC(N4CCCC4)CC3)n2Cc2ccccc21 [Example 136, {10-[(6-Chloro-3-methoxy-2′-methyl[1,1′-biphenyl]-4-yl)carbonyl]-10,11-dihydro-5H-pyrrolo[2,1-c][1,4]benzodiazepin-3-yl}[4-(1-pyrrolidinyl)-1-piperidinyl]methanone]
8%	–	CN(C)CCCNC(=O)c1ccc2n1Cc1ccccc1N(C(=O)c1ccc(-c3cccc4ccccc34)cc1Cl)C2 [Example 83, 10-[2-Chloro-4-(1-naphthyl)benzoyl]-N-[3-(dimethylamino)propyl]-10,11-dihydro-5H-pyrrolo[2,1-c][1,4]benzodiazepine-3-carboxamide]
–	> 3000 nM	COc1cc(-c2ccccc2C(F)(F)F)c(OC)cc1C(=O)N1Cc2cccn2Cc2ccccc21 [Example 32, 10-{[3,6-Dimethoxy-2′-trifluoromethyl-[1,1′-biphenyl]-4-yl]carbonyl}-10,11-dihydro-5H-pyrrolo[2,1-c][1,4]benzodiazepine]
37%	–	COc1cccc(-c2ccc(C(=O)N3Cc4ccc(C(=O)NCCCN(C)C)n4Cc4ccccc43)cc2OC)c1 [Example 82, 10-[(2,3′-Dimethoxy[1,1′-biphenyl]-4-yl)carbonyl]-N-[3-(dimethylamino)propyl]-10,11-dihydro-5H-pyrrolo[2,1-c][1,4]benzodiazepine-3-carboxamide]
–	238 nM	COc1cc(-c2ccccc2C)c(Cl)cc1C(=O)N1Cc2ccc(C(=O)N(C)CCCN(C)C)n2Cc2ccccc21 [Example 98, 10-[(6-Chloro-3-methoxy-2′-methyl[1,1′-biphenyl]-4-yl)carbonyl]-N-[3-(dimethylamino)propyl]-N-methyl-10,11-dihydro-5H-pyrrolo[2,1-c][1,4]benzodiazepine-3-carboxamide]
–	488 nM	COc1ccccc1-c1ccc(C(=O)N2Cc3ccc(C(=O)N4CCN(CCN5CCOCC5)CC4)n3Cc3ccccc32)cc1 [Example 207, {10-[(2′-Methoxy[1,1′-biphenyl]-4-yl)carbonyl]-10,11-dihydro-5H-pyrrolo[2,1-c][1,4]benzodiazepin-3-yl}{4-[2-(4-morpholinyl)ethyl]-1-piperazinyl}methanone]
10%	–	CN(C)CCN(C)C(=O)c1ccc2n1Cc1ccccc1N(C(=O)c1ccc(-c3cccc4ccccc34)cc1Cl)C2 [Example 96, 10-[2-Chloro-4-(1-naphthyl)benzoyl]-N-[2-(dimethylamino)ethyl]-N-methyl-10,11-dihydro-5H-pyrrolo[2,1-c][1,4]benzodiazepine-3-carboxamide]
–	312 nM	COc1cc(-c2ccccc2Cl)c(Cl)cc1C(=O)N1Cc2ccc(C(=O)N(C)C3CCN(C)CC3)n2Cc2ccccc21 [Example 43, 10-[(2′-Chloro-6-chloro-3-methoxy-[1,1′-biphenyl]-4-yl)carbonyl]-N-methyl-N-(1-methylpiperidin-4-yl)-10,11-dihydro-5H-pyrrolo[2,1-c][1,4]benzodiazepine-3-carboxamide]
4%	–	COc1ccccc1-c1ccc(C(=O)N2Cc3ccc(C(=O)NCCCN(C)C)n3Cc3ccccc32)cc1OC [Example 81, 10-[(2,2′-Dimethoxy[1,1′-biphenyl]-4-yl)carbonyl]-N-[3-(dimethylamino)propyl]-10,11-dihydro-5H-pyrrolo[2,1-c][1,4]benzodiazepine-3-carboxamide]
–	2720 nM	Cc1cc(C(=O)N2Cc3ccc(C(=O)N4CCN(C)CC4)n3Cc3ccccc32)ccc1-c1ccccc1C(F)(F)F [Example 2, (4-Methyl-piperazin-1-yl)-[10-(2-methyl-2′-trifluoromethyl-[1,1′-biphenyl]-4-yl)-carbonyl]-10,11-dihydro-5H-pyrrolo[2,1-c][1,4]benzodiazepin-3-yl-methanone]
–	1370 nM	Cc1cc(C(=O)N2Cc3ccc(C(=O)NC(=N)N)n3Cc3ccccc32)ccc1-c1ccccc1C(F)(F)F [Example 8, N-[(10-{[2-methyl-2′-(trifluoromethyl)[1,1′-biphenyl]-4-yl]carbonyl}-10,11-dihydro-5H-pyrrolo[2,1-c][1,4]benzodiazepin-3-yl)carbonyl]guanidine]
45%	–	COc1cccc(-c2ccc(C(=O)N3Cc4ccc(C(=O)N(C)CCCN(C)C)n4Cc4ccccc43)cc2C)c1 [Example 102, N-[3-(Dimethylamino)propyl]-10-[(3′-methoxy-2-methyl[1,1′-biphenyl]-4-yl)carbonyl]-N-methyl-10,11-dihydro-5H-pyrrolo[2,1-c][1,4]benzodiazepine-3-carboxamide]
–	316 nM	COc1ccccc1-c1ccc(C(=O)N2Cc3ccc(C(=O)N4CCCN(C)CC4)n3Cc3ccccc32)cc1 [Example 61, {10-[(2′-Methoxy[1,1′-biphenyl]-4-yl)carbonyl]-10,11-dihydro-5H-pyrrolo[2,1-c][1,4]benzodiazepin-3-yl}(4-methyl-1,4-diazepan-1-yl)methanone]
–	2480 nM	Cc1cc(C(=O)N2Cc3ccc(C(=O)N4CCNCC4)n3Cc3ccccc32)ccc1-c1ccccc1C(F)(F)F [Example 7, 10,11-Dihydro-10-[[2-methyl-2′-trifluoromethyl-[1,1′-biphenyl]-4-yl]carbonyl]-3-(1-piperazinylcarbonyl)-5H-pyrrolo[2,1-c][1,4]benzodiazepine hydrochloride salt]
22%	–	COc1cc(C(=O)N2Cc3ccc(C(=O)N(C)CCCN(C)C)n3Cc3ccccc32)ccc1-c1cccc2ccccc12 [Example 106, N-[3-(Dimethylamino)propyl]-10-[3-methoxy-4-(1-naphthyl)benzoyl]-N-methyl-10,11-dihydro-5H-pyrrolo[2,1-c][1,4]benzodiazepine-3-carboxamide]
74%	–	COc1cc(C(=O)N2Cc3ccc(C(=O)N(C)CCCN(C)C)n3Cc3ccccc32)ccc1-c1ccccc1C [Example 105, N-[3-(Dimethylamino)propyl]-10-[(2-methoxy-2′-methyl[1,1′-biphenyl]-4-yl)carbonyl]-N-methyl-10,11-dihydro-5H-pyrrolo[2,1-c][1,4]benzodiazepine-3-carboxamide]
–	484 nM	COc1ccccc1-c1ccc(C(=O)N2Cc3ccc(C(=O)N4CCN(C)CC4)n3Cc3ccccc32)cc1 [Example 48, {10-[(2′-Methoxy[1,1′-biphenyl]-4-yl)carbonyl]-10,11-dihydro-5H-pyrrolo[2,1-c][1,4]benzodiazepin-3-yl}(4-methyl-1-piperazinyl)methanone]
–	373 nM	COc1ccccc1-c1ccc(C(=O)N2Cc3ccc(C(=O)N4CCN(CCCN(C)C)CC4)n3Cc3ccccc32)cc1 [Example 246, {4-[3-(Dimethylamino)propyl]-1-piperazinyl}{10-[(2′-methoxy[1,1′-biphenyl]-4-yl)carbonyl]-10,11-dihydro-5H-pyrrolo[2,1-c][1,4]benzodiazepin-3-yl}methanone]
–	311 nM	COc1cccc(-c2cc(OC)c(C(=O)N3Cc4ccc(C(=O)N(C)CCCN(C)C)n4Cc4ccccc43)cc2Cl)c1 [Example 99, 10-[(6-Chloro-3,3′-dimethoxy[1,1′-biphenyl]-4-yl)carbonyl]-N-[3-(dimethylamino)propyl]-N-methyl-10,11-dihydro-5H-pyrrolo[2,1-c][1,4]benzodiazepine-3-carboxamide]
–	367 nM	COc1ccccc1-c1ccc(C(=O)N2Cc3ccc(C(=O)N4CCN(CCN(C)C)CC4)n3Cc3ccccc32)cc1C [Example 195, {4-[2-(Dimethylamino)ethyl]-1-piperazinyl}{10-[(2′-methoxy-2-methyl[1,1′-biphenyl]-4-yl)carbonyl]-10,11-dihydro-5H-pyrrolo[2,1-c][1,4]benzodiazepin-3-yl}methanone]
–	1810 nM	C=CCN1CCN(C(=O)c2ccc3n2Cc2ccccc2N(C(=O)c2cc(Cl)c(-c4ccccc4C)cc2OC)C3)CC1 [Example 219, (4-Allyl-1-piperazinyl){10-[(6-chloro-3-methoxy-2′-methyl[1,1′-biphenyl]-4-yl)carbonyl]-10,11-dihydro-5H-pyrrolo[2,1-c][1,4]benzodiazepin-3-yl}methanone]
–	386 nM	COc1cc(-c2ccccc2F)c(Cl)cc1C(=O)N1Cc2cccn2Cc2ccccc21 [Example 18B, 10-{[6-Chloro-3-methoxy-2′-fluoro-[1,1′-biphenyl]-4-yl]carbonyl}-10,11-dihydro-5H-pyrrolo[2,1-c][1,4]benzodiazepine]
–	349 nM	COc1cccc(-c2cc(OC)c(C(=O)N3Cc4ccc(C(=O)N(C)CCN(C)C)n4Cc4ccccc43)cc2Cl)c1 [Example 87, 10-[(6-Chloro-3,3′-dimethoxy[1,1′-biphenyl]-4-yl)carbonyl]-N-[2-(dimethylamino)ethyl]-N-methyl-10,11-dihydro-5H-pyrrolo[2,1-c][1,4]benzodiazepine-3-carboxamide]
–	524 nM	COc1cc(-c2ccccc2C)c(Cl)cc1C(=O)N1Cc2ccc(C(=O)N3CCN(CCN(C)C)CC3)n2Cc2ccccc21 [Example 197, {10-[(6-Chloro-3-methoxy-2′-methyl[1,1′-biphenyl]-4-yl)carbonyl]-10,11-dihydro-5H-pyrrolo[2,1-c][1,4]benzodiazepin-3-yl}{4-[2-(dimethylamino)ethyl]-1-piperazinyl}methanone]
